# Earlier results in US20110002851A1, “Cationic Colloidal Carriers for Delivery of Active Agents to the Blood-Brain Barrier in the Course of Neuroinflammatory Diseases” (MediGene AG, priority 2006, published 2011).
# How the values were obtained:
# T cell = conditions: micellar paclitaxel formulation
# MMP-9 = conditions: LPS-stimulated astrocytes and microglia
SMILES,T cell proliferation (T cell),expression of MMP-9 (MMP-9)
CC(=O)O[C@H]1C(=O)[C@@]2(C)[C@H]([C@H](OC(=O)c3ccccc3)[C@]3(O)C[C@H](OC(=O)[C@H](O)[C@@H](NC(=O)c4ccccc4)c4ccccc4)C(C)=C1C3(C)C)[C@]1(OC(C)=O)CO[C@@H]1C[C@@H]2O (racemic) [paclitaxel],dose-dependent suppression,–
"Cc1cn([C@H]2C[C@H](N=[N+]=[N-])[C@@H](CO)O2)c(=O)[nH]c1=O [AZT, zidovudine]",–,dose-dependently inhibited
"CC(C)(C)NC(=O)[C@@H]1CN(Cc2cccnc2)CCN1C[C@@H](O)C[C@@H](Cc1ccccc1)C(=O)N[C@H]1c2ccccc2C[C@H]1O [IDV, indinavir]",–,dose-dependently inhibited
